# Earlier results in patent US20220143227A1, “Method of Treatment of Neuroendocrine Tumors That Over-Express Somatostatatin Receptors” (ADVANCED ACCELERATOR APPLICATIONS, priority 2015, published 2022).
# Where two headings read alike, the source gives them in different places.
# Legend:
# [1] = human, in vivo
# [2] = system: human xenograft tumor model of NET; details: in vivo
# lymphocytes = details: B- versus T-lymphocytes
# [3] = system: progressive neuroendocrine tumors of pancreatic origin, and NETs of gastrointestinal (GI) or lung origin; details: Phase 3 trials
# pos-tdocetaxel CRPC = details: phase III trial
compound,measurement,setting,value
"C[C@@H](O)[C@H](NC(=O)[C@@H]1CSSC[C@H](NC(=O)[C@@H](Cc2ccccc2)NC(=O)CN2CCN(CC(=O)[O-])CCN(CC(=O)[O-])CCN(CC(=O)[O-])CC2)C(=O)N[C@@H](Cc2ccc(O)cc2)C(=O)N[C@H](Cc2c[nH]c3ccccc23)C(=O)N[C@@H](CCCCN)C(=O)N[C@@H]([C@@H](C)O)C(=O)N1)C(=O)O.[177Lu+3] [Lutathera, [177]Lutetium-DOTA[O]-Tyr[3]-Octreotate]",severe hematologic toxicity Grade 3-4,[1],3.1 % of the cases
same,CD86+ APC infiltration,[2],increased CD86+ APC infiltration
same,expression of CD86 on APC,[2],increased expression of CD86
same,"lymphocyte toxicity, specificity",lymphocytes,more specific to B-lymphocytes
CO[C@H]1C[C@@H]2CC[C@@H](C)[C@@](O)(O2)C(=O)C(=O)N2CCCC[C@H]2C(=O)O[C@H]([C@H](C)C[C@@H]2CC[C@@H](OCCO)[C@H](OC)C2)CC(=O)[C@H](C)/C=C(\C)[C@@H](O)[C@@H](OC)C(=O)[C@H](C)C[C@H](C)/C=C/C=C/C=C/1C [Everolimus],PFS,[3],11 months
"ipilimumab: antibody that targets the CTLA-4/B7 receptor complex, approved for unresectable or metastatic melanoma",abscopal effect among patients with local response,advanced melanoma; 13 patients with local response,85%
same,no local regression,"advanced melanoma; 21 patients, RT after ipilimumab progression",38%
same,median OS,advanced melanoma; all 21 patients,13 months
same,median OS,advanced melanoma; patients with abscopal responses,22.4 months
same,median OS,advanced melanoma; patients without abscopal responses,8.3 months
same,improvement in OS with addition of ipilimumab to RT,pos-tdocetaxel CRPC,no significant improvement in OS
